Source: patent publication US6534524B1, “Indazole compounds and pharmaceutical compositions for inhibiting protein kinases, and methods for their use” (Agouron Pharmaceuticals, Inc., priority 1999, dated 2003)
Read-outs that look alike come from different tables or passages of the source.

Legend:
[1] = Human liver microsome (HLM) assay; format: in vitro ADME; conditions: human liver microsomes, 5 μM test compound
Description: Human Liver Microsome (HLM) Assay Compound metabolism in human liver microsomes was measured by LC-MS analytical assay procedures as follows. […] (3 tubes per test compound-triplicate). […] The samples were then transferred to separate polypropylene microcentrifuge tubes and centrifuged at 14000 g for 10 min. (Fisher Micro […] M0017580). For each replicate (#1-3) at each timepoint (0 and 2 h), an aliquot sample of each test compound was combined into a single HPLC vial insert (6 total samples) for LC-MS analysis, which is described below.

[2] = Determination of inhibitor concentration in mouse plasma after intraperitoneal and oral dosing; format: in vivo
Outline: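 Plasma levels quantified by HPLC or LC-MS using a standard curve prepared in mouse plasma, following ethyl acetate extraction with internal standard and sodium hydroxide. Sampling at 0.5, 1, 4 h (ocular bleed) and 7 h (cardiac puncture) after oral or intraperitoneal dosing.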

[3] = PO, 25 mg/kg, vehicle PEG400:H2O pH 2.3 30:70
[4] = female, PO, 25 mg/kg, vehicle PEG400:H2O pH 2.3 30:70, read-out: Cmin (7 hr conc.)
[5] = IP, 25 mg/kg, vehicle PEG400:H2O pH 2.3 60:40
[6] = PO, 50 mg/kg, vehicle PEG400:H2O pH 2.3 60:40
[7] = IP, 25 mg/kg, vehicle PEG400:H2O pH 2.3 30:70
[8] = PO, 50 mg/kg, vehicle PEG400:H2O pH 2.3 30:70
[9] = female, IP, 25 mg/kg, vehicle PEG400:H2O pH 2.3 30:70, read-out: Cmin (7 hr conc.)
[10] = female, PO, 50 mg/kg, vehicle PEG400:H2O pH 2.3 30:70, read-out: Cmin (7 hr conc.)

Compound | % remain (HLM, 2 h) [1] [%] | AUClast [2, 3] [ng·h/mL] | plasma half-life (T1/2) [2, 3] [h] | concentration at 7 h [2, 4] [ng/mL] | AUClast [2, 7] [ng·h/mL] | plasma half-life (T1/2) [2, 7] [h] | AUClast [2, 8] [ng·h/mL] | plasma half-life (T1/2) [2, 8] [h] | concentration at 7 h [2, 9] [ng/mL] | concentration at 7 h [2, 10] [ng/mL] | further results
Cc1cc(C(=O)Nc2cc(C(=O)c3ccc4c(/C=C/c5ccccn5)n[nH]c4c3)ccc2C)n(C(C)C)n1 [Example 41(kk), 6-[3-((1-Isopropyl-3-methyl-1H-pyrazol-5-yl)carboxamido)-4-methylbenzoyl]-3-E-[2-(pyridin-2-yl)ethenyl]-1H-indazole] | 63 | 11612 | 2.0 | 415 | – | – | – | – | – | – | –
O=C(c1cccc(NC(=O)c2ccccn2)c1)c1ccc2c(/C=C/c3ccccc3)n[nH]c2c1 [Example 19(k), 6-[3-(Pyridin-2-ylcarboxamido)benzoyl]-3-E-styryl-1H-indazole] | 58 | – | – | – | – | – | – | – | – | – | AUClast [2, 5]: 428 ng·h/mL; Cmax [2, 5]: 149 ng/mL; plasma half-life (T1/2) [2, 5]: 2.2 h; AUClast [2, 6]: 19 ng·h/mL; Cmax [2, 6]: 8 ng/mL; plasma half-life (T1/2) [2, 6]: 2.2 h; concentration at 7 h ([2]; female, IP, 25 mg/kg, vehicle PEG400:H2O pH 2.3 60:40, read-out: Cmin (7 hr conc.)): 15 ng/mL; concentration at 7 h ([2]; female, PO, 50 mg/kg, vehicle PEG400:H2O pH 2.3 60:40, read-out: Cmin (7 hr conc.)): 4 ng/mL
C#CCNC(=O)c1ccccc1Sc1ccc2c(/C=C/c3ccccn3)n[nH]c2c1 [Example 35(cc), 6-[2-(2-Propynylcarbamoyl)phenylsulfanyl]-3-E-[2-(pyridin-2-yl)ethenyl]-1H-indazole] | 31 | – | – | – | 2223 | 1.4 | 1718 | 0.9 | 6 | 5 | –
CC(C)ONC(=O)c1ccccc1Sc1ccc2c(/C=C/c3ccccn3)n[nH]c2c1 [Example 35(k), 6-[2-(Isopropoxycarbamoyl)phenylsulfanyl]-3-E-[2-(pyridin-2-yl)ethenyl]-1H-indazole] | 14 | – | – | – | 2640 | 1.4 | 5529 | 1.4 | 35 | 33 | –
O=C(NCC1CC1)c1ccccc1Sc1ccc2c(/C=C/c3ccccn3)n[nH]c2c1 [Example 35(v), 6-[2-(Cyclopropylmethyl-carbamoyl)phenylsulfanyl]-3-E-[2-(pyridin-2-yl)ethenyl]-1H-indazole] | 26 | – | – | – | 4865 | 0.9 | – | 1.0 | 16 | 26 | AUC(0-t) ([2]; female, PO, 50 mg/kg, vehicle PEG400:H2O pH 2.3 30:70): > 2950 ng·h/mL; Cmax ([2]; female, PO, 50 mg/kg, vehicle PEG400:H2O pH 2.3 30:70, read-out: Cmax): > 2000 ng/mL
CC(C)ONC(=O)c1cccc(F)c1Sc1ccc2c(/C=C/c3ccccn3)n[nH]c2c1 [Example 37(c), 6-[6-Fluoro-2-(isopropoxycarbamoyl)phenylsulfanyl]-3-E-[2-(pyridin-2-yl)ethenyl]-1H-indazole] | 21 | 2419 | 1.2 | 9 | – | – | – | – | – | – | –
COc1cccc(CNC(=O)c2ccccc2Sc2ccc3c(/C=C/c4ccccn4)n[nH]c3c2)c1 [Example 35(aa)] | 15 | 4036 | 2.1 | 106 | – | – | – | – | – | – | –
Cn1cccc1C(=O)NNC(=O)c1ccccc1Sc1ccc2c(/C=C/c3ccccn3)n[nH]c2c1 [Example 35(e), 6-[2-((1-Methylpyrrol-2-ylhydrazido)carbonyl)phenylsulfanyl]-3-E-[2-(pyridin-2-yl)ethenyl]-1H-indazole] | 34 | – | – | – | 2409 | 1.8 | 1503 | 0.9 | 65 | 6 | –
CCCONC(=O)c1ccccc1Sc1ccc2c(/C=C/c3ccccn3)n[nH]c2c1 [Example 35(t), 6-[2-(n-Propoxycarbamoyl)phenylsulfanyl]-3-E-[2-(pyridin-2-yl)ethenyl]-1H-indazole] | 7 | 3199 | 1.1 | 41 | – | – | – | – | – | – | –
O=C(NC1CCC1)c1ccccc1Sc1ccc2c(/C=C/c3ccccn3)n[nH]c2c1 [Example 35(c), 6-[2-(Cyclobutylcarbamoyl)phenylsulfanyl]-3-E-[2-(pyridin-2-yl)ethenyl]-1H-indazole] | 17 | – | – | – | 9408 | 3.2 | 4744 | 4.9 | 465 | 321 | Cmax [2, 7]: 1976 ng/mL
Cn1ccnc1/C=N/NC(=O)c1ccccc1Sc1ccc2c(/C=C/c3ccccn3)n[nH]c2c1 [Example 36(a)] | 58 | 605 | 1.5 | 17 | – | – | – | – | – | – | –
CCOCCNC(=O)c1ccccc1Sc1ccc2c(/C=C/c3ccccn3)n[nH]c2c1 [Example 35(z), 6-[2-(2-(Ethoxy)ethylcarbamoyl)phenylsulfanyl]-3-E-[2-(pyridin-2-yl)ethenyl]-1H-indazole] | 2 | – | – | – | 837 | 1.8 | 1001 | 1.6 | 22 | 14 | –
CNC(=O)c1ccccc1Sc1ccc2c(/C=C/c3ccccn3)n[nH]c2c1 [Example 33(a), 6-[2-(methylcarbamoyl)phenylsulfanyl]-3-E-[2-(pyridin-2-yl)ethenyl]indazole] | 29 | – | – | – | 13813 | – | 19067 | – | – | – | Cmax [2, 7]: 13794 ng/mL; Cmax [2, 8]: 23562 ng/mL; Cmax ([2]; female, PO, 25 mg/kg, vehicle 0.5% CMC, read-out: Cmax): 721 ng/mL; Cmax ([2]; female, PO, 100 mg/kg, vehicle 0.5% CMC, read-out: Cmax): 3560 ng/mL
C=C(C)CNC(=O)c1ccccc1Sc1ccc2c(/C=C/c3ccccn3)n[nH]c2c1 [Example 35(ee), 6-[2-(2-Methyl-2-propenylcarbamoyl)phenylsulfanyl]-3-E-[2-(pyridin-2-yl)ethenyl]-1H-indazole] | 13 | 157 | 14.6 | 9 | 546 | 1.5 | – | – | 2 | – | –
CCCNC(=O)c1ccccc1Sc1ccc2c(/C=C/c3ccccn3)n[nH]c2c1 [Example 35(a), 6-[2-(n-Propylcarbamoyl)phenylsulfanyl]-3-E-[2-(pyridin-2-yl)ethenyl]-1H-indazole] | 33 | – | – | – | 2032 | 1.4 | 2445 | 0.9 | 24 | 10 | Cmax [2, 7]: 2138 ng/mL; Cmax [2, 8]: 1780 ng/mL
CC(C)=CC(=O)Nc1cccc(C(=O)c2ccc3c(/C=C/c4ccccn4)n[nH]c3c2)c1 [Example 41(dd), 6-[3(3,3-Dimethylacrylamido)benzoyl]-3-E-[2-(pyridin-2-yl)ethenyl]-1H-indazole] | 7 | 654 | 0.8 | 1 | – | – | – | – | – | – | –
O=C(Nc1nccs1)c1ccccc1Sc1ccc2c(/C=C/c3ccccn3)n[nH]c2c1 [Example 35(y), 6-[2-(Thiazol-2-ylcarbamoyl)phenylsulfanyl]-3-E-[2-(pyridin-2-yl)ethenyl]-1H-indazole] | 7 | – | – | – | 159 | 1.2 | 58 | 1.2 | 2 | 1 | –
COc1cccc(C(=O)Nc2cccc(C(=O)c3ccc4c(/C=C/c5ccccn5)n[nH]c4c3)c2)c1 [Example 41(bb), 6-[3-(3-Methoxybenzamido)benzoyl]-3-E-[2-(pyridin-2-yl)ethenyl]-1H-indazole] | 110 | – | – | – | – | – | 2178 | 2.0 | – | 75 | Cmax [2, 8]: 596 ng/mL
O=C(NOCC1CC1)c1ccccc1Sc1ccc2c(/C=C/c3ccccn3)n[nH]c2c1 [Example 35(s), 6-[2-((Cyclopropyl)methoxycarbamoyl)phenylsulfanyl]-3-E-[2-(pyridin-2-yl)ethenyl]-1H-indazole] | 16 | – | 2.2 | 86 | – | – | – | – | – | – | AUC(0-t) ([2]; female, PO, 25 mg/kg, vehicle PEG400:H2O pH 2.3 30:70): 7420 ng·h/mL; Cmax ([2]; female, PO, 25 mg/kg, vehicle PEG400:H2O pH 2.3 30:70, read-out: Cmax): 3370 ng/mL
